# In US8436012B2, “Imidazopyridin-2-one derivatives” (Daiichi Sankyo Company, Limited, priority 2008, dated 2013):
# What was measured:
# human mTOR = target: T1, human mTOR (Homo sapiens, UniProt P42345); assay: mTOR Kinase Activity Inhibition Test; type: biochemical; details: His-tagged mTOR (1362C), biotinylated peptide substrate, ATP, 3 hours at room temperature, fluorescence resonance energy transfer 665 nm/620 nm; read-out: IC50 value of mTOR enzyme inhibitory activity
# T1 construct: the portion corresponding to 1362-2549aa at the C terminus of human mTOR; made in house
# T1 sequence (P42345 1362-2549): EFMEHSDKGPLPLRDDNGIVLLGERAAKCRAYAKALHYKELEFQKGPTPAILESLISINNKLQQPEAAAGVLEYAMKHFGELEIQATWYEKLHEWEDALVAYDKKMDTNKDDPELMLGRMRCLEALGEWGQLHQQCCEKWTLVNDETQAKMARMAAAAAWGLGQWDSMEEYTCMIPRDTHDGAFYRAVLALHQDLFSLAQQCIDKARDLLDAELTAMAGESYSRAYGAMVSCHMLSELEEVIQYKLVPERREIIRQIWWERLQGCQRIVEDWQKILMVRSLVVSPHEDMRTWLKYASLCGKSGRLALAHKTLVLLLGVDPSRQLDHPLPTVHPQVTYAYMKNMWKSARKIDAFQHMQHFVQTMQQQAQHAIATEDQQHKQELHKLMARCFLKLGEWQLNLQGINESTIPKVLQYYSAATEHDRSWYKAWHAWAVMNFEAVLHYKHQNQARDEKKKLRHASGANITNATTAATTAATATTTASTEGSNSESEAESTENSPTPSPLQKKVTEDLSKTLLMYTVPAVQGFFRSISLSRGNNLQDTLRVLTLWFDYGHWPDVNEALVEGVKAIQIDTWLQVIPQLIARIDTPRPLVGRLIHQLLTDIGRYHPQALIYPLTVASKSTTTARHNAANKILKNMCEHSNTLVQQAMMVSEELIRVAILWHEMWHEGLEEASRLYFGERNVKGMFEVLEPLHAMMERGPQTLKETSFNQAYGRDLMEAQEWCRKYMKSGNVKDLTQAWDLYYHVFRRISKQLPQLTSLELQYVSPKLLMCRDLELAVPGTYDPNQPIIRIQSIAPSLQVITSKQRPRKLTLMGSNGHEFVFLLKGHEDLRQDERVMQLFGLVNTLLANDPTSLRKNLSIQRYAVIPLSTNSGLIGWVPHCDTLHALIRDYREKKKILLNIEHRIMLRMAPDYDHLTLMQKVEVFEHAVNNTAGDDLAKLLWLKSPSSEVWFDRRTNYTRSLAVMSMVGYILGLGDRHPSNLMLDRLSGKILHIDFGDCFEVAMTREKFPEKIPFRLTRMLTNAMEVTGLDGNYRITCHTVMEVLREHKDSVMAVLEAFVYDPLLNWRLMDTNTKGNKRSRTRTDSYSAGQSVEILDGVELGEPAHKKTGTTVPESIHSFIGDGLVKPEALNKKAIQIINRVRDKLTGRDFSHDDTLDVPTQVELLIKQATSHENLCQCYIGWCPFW
# Procedure: The kinase activity of mTOR was measured in the presence or absence of a test compound. A substrate peptide is phosphorylated by mTOR kinase activity. A complex of streptavidin-XL665 and anti-phosphorylated S6K (Thr389) antibody/anti-mouse IgG-cryptate binds to this phosphorylated peptide. At this moment, fluorescence resonance energy transfer takes place from antibody/anti-mouse IgG-cryptate exposed to light excitation to XL665, which results in emission of fluorescence at 665 nm. The mTOR kinase activity is detected using this principle.
# (1) Sample Preparation and Enzymatic Reaction
# An HEK293 cell line that constitutively expresses a His tag fused human mTOR has been established. His tag was introduced into the N terminus of the portion corresponding to 1362-2549aa at the C terminus of human mTOR. Cell lysate was prepared from this HEK293 cell line constitutively expressing His-tagged mTOR (1362C), and His-tagged mTOR (1362C) was purified using the His tag affinity according to a conventional method.
# Next, an mTOR enzyme solution was prepared, which contains the aforementioned His-tagged mTOR (1362C) enzyme, 8 μg/mL of biotinylated peptide (Biotin-Ahx-[…]-amide (Sigma)), as well as 50 mM HEPES (pH 7.5), 20 mM MnCl2, 1 mg/ml BSA, an appropriate amount of protease inhibitor cocktail (Complete EDTA free, Roche), 100 ng/ml Calyculin A, 4 μg/ml Cantharidin and 10 mM DTT as other components.
# The test compound was dissolved in DMSO, and serial dilutions were prepared with 20 μM ATP solution (50 mM HEPES (pH 7.5), 20 μM ATP) to achieve concentrations necessary for the assay. 5 μL of this compound solution was applied to each well of a 384 well small volume white Greiner plate.
# 5 μL of mTOR enzyme solution was added to the aforementioned well containing the test compound. After mixing, the mixture was incubated at room temperature for 3 hours to carry out the enzymatic reaction.
# The same operation was performed with a solution of DMSO in 20 μM ATP solution as a positive control and with a solution of DMSO in 50 mM HEPES (pH 7.5) as a negative control.
# (2) Detection of Enzymatic Reaction
# After the enzymatic reaction, 5 μl each of an europium solution (a solution of anti-mouse IgG-cryptate (SCETI Medical Labo K.K.) and anti-phosphorylated S6K (Thr389) antibody (Cell Signaling Technology Inc.) in 50 mM HEPES (pH 7.5), 100 mM EDTA and 1.5 mg/ml BSA) and an XL665 solution (a solution of streptavidin-XL665 (SCETI Medical Labo K.K.) in 50 mM HEPES (pH 7.5), 100 mM EDTA, 0.8 M KF and 1.5 mg/ml BSA) were added in this order and then mixed. The mixture was incubated at 4° C. overnight. On the following day, the mixture was returned to room temperature and irradiated with excitation light at 337 nm. Fluorescence at 620 nm and fluorescence at 665 nm were measured with RUBYstar (BMG).
# The mTOR inhibitory activity (%) was calculated using the ratio calculated from the measured values as an index of enzyme activity. Here, the ratio was calculated from the following formula (I). Ratio=10000×665 nm fluorescence value/620 nm fluorescence value (1)
# The mTOR enzyme inhibitory activity (%) was calculated from the following formula (2). mTOR enzyme inhibitory activity (%)=100×[(P−S)/(P−N)] (2)
# P: Ratio in well of positive control
# N: Ratio in well of negative control
# S: Ratio in well containing test compound
# Further, an optimal curve was calculated based upon each concentration of the test compound prepared in serial dilutions and the mTOR enzyme inhibitory activity (%) at that concentration. The concentration at which 50% inhibition occurred was calculated as the IC50 value of mTOR enzyme inhibitory activity.
# WM-266-4 cells = assay: Cell Proliferation Inhibitory Test; type: cell-based; details: Homo sapiens, 72 h, cultured three days with test compound, MTT, read-out: 50% cell proliferation inhibitory activity (GI50 value)
# Procedure: WM-266-4 cells (ATCC, USA) were seeded in a 96-well plate and cultured overnight. Then, serial dilutions of the sample containing the test compound were prepared, added to each well and cultured another three days. Thereafter, the cell amount in each well was measured by MTT (MOSMANN, T., Rapid colorimetric assay for cellular growth and survival: application to proliferation and cytotoxicity assays. J. Immunol. Methods, 65, 55-63 (1983)). The 50% cell proliferation inhibitory activity (GI50 value) was calculated from the following formula (3). 100×[(T−T0)/(C−T0)]=50 (3)
# Here, T represents values from the test compound added wells, C represents the value from the well to which the test compound was not added for three days, and To represents an initial measured value at the time of addition of the test compound.
SMILES,IC50 (human mTOR) [nM],GI50 (WM-266-4 cells) [nM]
"Cc1nc2[nH]ccc2cc1-c1cnc2[nH]c(=O)n(CC3CCOCC3)c2c1 [Example 16, 6-(6-Methyl-1H-pyrrolo[2,3-b]pyridin-5-yl)-1-(tetrahydro-2H-pyran-4-ylmethyl)-1,3-dihydro-2H-imidazo[4,5-b]pyridin-2-one]",< 50,< 3000
"Cc1nc2[nH]c(=O)n(CC3CCOCC3)c2cc1-c1cnc2[nH]ccc2c1 [Example 17, 5-Methyl-6-(1H-pyrrolo[2,3-b]pyridin-5-yl)-1-(tetrahydro-2H-pyran-4-ylmethyl)-1,3-dihydro-2H-imidazo[4,5-b]pyridin-2-one]",< 50,< 3000
"Cc1c(-c2cnc3[nH]ccc3c2)cnc2[nH]c(=O)n(CC3CCOCC3)c12 [Example 18, 7-Methyl-6-(1H-pyrrolo[2,3-b]pyridin-5-yl)-1-(tetrahydro-2H-pyran-4-ylmethyl)-1,3-dihydro-2H-imidazo[4,5-b]pyridin-2-one]",< 50,< 3000
"O=c1[nH]c2ncc(-c3cc4ccccc4[nH]3)cc2n1CC1CCOCC1 [Example 23, 6-(1H-Indol-2-yl)-1-(tetrahydro-2H-pyran-4-ylmethyl)-1,3-dihydro-2H-imidazo[4,5-b]pyridin-2-one]",< 50,< 3000
"O=c1[nH]c2ncc(-c3ccc4[nH]ccc4c3F)cc2n1CC1CCOCC1 [Example 27, 6-(4-Fluoro-1H-indol-5-yl)-1-(tetrahydro-2H-pyran-4-ylmethyl)-1,3-dihydro-2H-imidazo[4,5-b]pyridin-2-one]",< 50,< 3000
"O=c1[nH]c2ncc(-c3cc4cc[nH]c4cc3F)cc2n1CC1CCOCC1 [Example 28, 6-(6-Fluoro-1H-indol-5-yl)-1-(tetrahydro-2H-pyran-4-ylmethyl)-1,3-dihydro-2H-imidazo[4,5-b]pyridin-2-one]",< 50,< 3000

# The next lines start with results.
IC50 (human mTOR) [nM],SMILES,GI50 (WM-266-4 cells) [nM]
< 50,"O=c1[nH]c2ncc(-c3cnc4[nH]ccc4c3)cc2n1C1CCOCC1 [Example 19, 6-(1H-Pyrrolo[2,3-b]pyridin-5-yl)-1-(tetrahydro-2H-pyran-4-yl)-1,3-dihydro-2H-imidazo[4,5-b]pyridin-2-one]",< 3000
< 50,"O=c1[nH]c2ncc(-c3cnc4[nH]ccc4c3)cc2n1CCC1CCOCC1 [Example 20, 6-(1H-Pyrrolo[2,3-b]pyridin-5-yl)-1-[2-(tetrahydro-2H-pyran-4-yl)ethyl]-1,3-dihydro-2H-imidazo[4,5-b]pyridin-2-one]",< 3000
< 50,"O=c1[nH]c2ncc(-c3cnc4[nH]ccc4c3)cc2n1CC1CC1 [Example 21, 1-(Cyclopropylmethyl)-6-(1H-pyrrolo[2,3-b]pyridin-5-yl)-1,3-dihydro-2H-imidazo[4,5-b]pyridin-2-one]",< 3000
< 50,"CC(C1CCOCC1)n1c(=O)[nH]c2ncc(-c3cnc4[nH]ccc4c3)cc21 (centres unmarked) [Example 24, 6-(1H-Pyrrolo[2,3-b]pyridin-5-yl)-1-[1-(tetrahydro-2H-pyran-4-yl)ethyl]-1,3-dihydro-2H-imidazo[4,5-b]pyridin-2-one]",< 3000
< 50,"CC1(Cn2c(=O)[nH]c3ncc(-c4cnc5[nH]ccc5c4)cc32)CCOCC1 [Example 25, 1-[(4-Methyltetrahydro-2H-pyran-4-yl)methyl]-6-(1H-pyrrolo[2,3-b]pyridin-5-yl)-1,3-dihydro-2H-imidazo[4,5-b]pyridin-2-one]",< 3000
< 50,"CS(=O)(=O)N1CCC(Cn2c(=O)[nH]c3ncc(-c4cnc5[nH]ccc5c4)cc32)CC1 [Example 26, 1-{[1-(Methanesulfonyl)piperidin-4-yl]methyl}-6-(1H-pyrrolo[2,3-b]pyridin-5-yl)-1,3-dihydro-2H-imidazo[4,5-b]pyridin-2-one]",< 3000
< 50,"O=c1[nH]c2ncc(-c3cc(F)c4[nH]ccc4c3)cc2n1CC1CCOCC1 [Example 29, 6-(7-Fluoro-1H-indol-5-yl)-1-(tetrahydro-2H-pyran-4-ylmethyl)-1,3-dihydro-2H-imidazo[4,5-b]pyridin-2-one]",< 3000
